Entries after “also recorded” stand apart in the source; their conditions may differ.
Assays:
[1] = tested on: APP, BACE1 and Aβ42 levels; assay: Immunoblot of APP and BACE1 and Aβ42 Elisa in hAPP(J20) mice; assay type: in vivo, mouse; conditions: 14 days treatment
20S proteasome = 20S proteasome (Homo sapiens, UniProt P25787+P60900); conditions: cited from earlier work
hAPP(J20) mice = assay: Novel object recognition assay in hAPP(J20) mice; assay type: in vivo, mouse; conditions: 14 days IP injection, 1 mg/kg, listed as Tat-TOD
Method: Novel object recognition test. To measure recognition of a previously encountered object, animals are placed in an opacified rat cage with bedding for 10 min. The following (training) day, mice are returned to the chamber, which now contains two identical objects, and allowed to explore the arena for 5 minutes. Percent of time exploring each object is recorded using TopScan. During testing (4 hours after training) one of the objects in the box is replaced with a new object and the side of the replaced object randomized amongst animals. Mice are given 5 mins to explore the two objects, and percent time exploring each object is recorded using TopScan. A discrimination ratio calculated as (tnovel−tfamiliar)/(tnovel+tfamiliar) is used as a measure of retention of the priorly encountered object (positive and negative discrimination ratio values indicate a preference for exploration of the novel and familiar objects, respectively).
The compounds were tested as follows: in neuroblast MC65 cell culture model with overexpressed C99 fragment of amyloid precursor protein (APP) upon tetracycline withdrawal or with external APP added; and in fruit fly (D. melanogaster) model of AD with overexpressed APP and BACE1. The compounds (1 μM) were mixed with food. Flies were trained to recognize “positive” and “negative” odors (olfaction aversion). […]

[2] = target: T1, purified human 20S proteasome (Homo sapiens, UniProt P25787+P60900); assay: In-gel overlay activity on non-denaturing gel, 20S proteasome; assay type: biochemical; conditions: 1 microM, 15 min, 100 microM Suc-LLVY-MCA
T1 construct: purified from erythrocytes; purchased Boston Biochem, Inc. or Enzo Life Sciences, Inc; host or cells: human erythrocytes
Method: (§1) Purified human 20S and 26S proteasomes were separated on non-denaturing polyacrylamide gel. The gel was overlayed with reaction buffer containing 100 microM fluorogenic peptide substrate Suc-LLVY-MCA (SEQ ID NO: 14) and 1% of vehicle solvent (DMSO) or the substrate and 1 microM Tat1 8,9 TOD. The gel was photographed after 15 min of incubation and then stained for the total protein content with Coomassie Brilliant Blue, and photographed. […] The protein content was the same for the control and Tat-overlayed sets. The activities of both 26S and 20S are enhanced by Tat1 8,9 TOD. The enhanced activity of 26S was not the result of Tat1 8,9 TOD—induced breaking of the 26S assembly into its components (19S and 20S) and activation of the released 20S catalytic core that still remains in the gel together with the whole 26S assembly. […] Traces of the 20S in both control 26S preparation and preparation pre-incubated with Tat1 8,9 TOD.

[3] = target: T2, purified human 26S proteasome (Homo sapiens, UniProt P25787+P60900); assay: In-gel overlay activity on non-denaturing gel, 26S proteasome; assay type: biochemical; conditions: 1 microM, 15 min, 100 microM Suc-LLVY-MCA
T2 construct: purchased Boston Biochemicals (Boston Biochem)
Method: as §1

With `N=C(N)NCCCC(NC(=O)CN)C(=O)NC(CCCCN)C(=O)NC(CCCCN)C(=O)NC(CCCNC(=N)N)C(=O)NC(CCCNC(=N)N)C(=O)NC(CCC(N)=O)C(=O)N1Cc2ccccc2C[C@H]1C(=O)N1C(C(=O)NC(CCCNC(N)N)C(=O)N2CCCC2C(=O)NC(CO)C(=O)O)CC2CCCCC21` (stereo partly shown) [(5), GRKKRRQ-TOD-RPS] the APP protein levels [1] was “decline in both APP and BACE1 protein levels”, the “protein levels of BACE1” value [1] was “significantly reduces” and the “protein levels of β-amyloid” value [1] was “significantly reduces”. For the same compound, the “degradation by 20S proteasome” value (20S proteasome) was “resistant to degradation”, the “learning and memory, novel object recognition” value (hAPP(J20) mice) was “efficiently explore their surroundings to recognize novel objects; also recorded: significantly enhances learning and memory” and the “20S activity in gel overlay” value [2] was “enhanced”. The “26S activity in gel overlay” value [3] was “enhanced”.
